# Reference: patent US6767533B1, “Use of a substance binding with the peripheral benzodiazepin receptor for treating skin stress” (Sanofi-Synthelabo, priority 1998, dated 2004)
# Like-named read-outs stand apart in the source and are kept apart here.
# Legend:
# [1] = target: T1, peripheral benzodiazepine receptor (PBR) (Homo sapiens, UniProt P30536); assay: Binding studies on keratinocyte line A-431 by displacement of [3H]-PK11195
# T1 construct: the peripheral receptor borne by the keratinocytes; host or cells: A-431 human epidermoid carcinoma keratinocyte line
# T1 sequence (P30536 whole entry): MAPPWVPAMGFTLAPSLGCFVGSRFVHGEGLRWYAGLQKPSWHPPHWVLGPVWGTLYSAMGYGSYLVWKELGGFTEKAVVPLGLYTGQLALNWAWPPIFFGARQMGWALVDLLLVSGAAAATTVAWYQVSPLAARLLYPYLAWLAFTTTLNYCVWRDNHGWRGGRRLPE
# human keratinocytes = assay: Protection of keratinocytes against UVB-induced cell impairment (apoptosis ELISA); type: cell-based; conditions: UVB 250 J/m^2 for 16 hours, ligand concentration range between 10 nM and 10 μm
# Method: The anti-apoptotic activity of the active agents was measured on human keratinocytes and on fibroblasts (ATCC) which were inoculated in 35 mm Petri dishes (5×10^5 cells/well) in DMEM (Dubelco's Mode Eagle Medium) supplemented with 10% fetal calf serum and left to proliferate to the point of confluence. This culture medium is then drawn off, the cells are rinsed and 0.1% fetal calf serum is added in the presence of a saline solution. Increasing concentrations of the substance to be studied are added. Twenty four hours later, the apoptosis is measured with an ELISA (enzyme-linked immunosorbent assay) assay kit.
# Keratinocytes were subjected to ultraviolet radiation of type B (UVB) at a dose of 250 J/m^2 for 16 hours (J. Invest. Dermatol. 1995, 104: 922-927). In the presence of the PBR ligand Ro 5-4864, it was shown that the cell impairment processes induced by the irradiation are prevented in a ligand concentration range of between 10 nM and 10 μm.
compound,measurement,setting,value
O=C1CN=C(c2ccccc2Cl)c2cc([N+](=O)[O-])ccc2N1 [clonazepam],displacement of the reference peripheral ligand PK 11195,"[1]; A-431 keratinocyte line, at 3 200 nM",inactive
CN1C(=O)CN=C(c2ccccc2)c2cc(Cl)ccc21 [diazepam],IC50,[1],~0.1 µM
"CN1C(=O)CN=C(c2ccc(Cl)cc2)c2cc(Cl)ccc21 [Ro 5-4864, chlorodiazepam]",IC50,"[1]; A-431 keratinocyte line, read-out: IC50, displacement of the reference peripheral ligand PK 11195",~0.025 µM
same,cell impairment processes induced by UVB irradiation,human keratinocytes,prevented
